# Literature values as cited in patent US20230383363A1, “METHOD FOR DETERMINING SENSITIVITY TO PARP INHIBITOR OR DNA DAMAGING AGENT USING NON-FUNCTIONAL TRANSCRIPTOME” (GC GENOME CORPORATION, priority 2020, published 2023).
# Settings: patients selected by FoundationFocusCDxBRCA (BRCA1 and BRCA2 mutations)
compound,measurement,value
CNCc1ccc(-c2[nH]c3cc(F)cc4c3c2CCNC4=O)cc1 [rucaparib],overall response rate (ORR),53.8%
